The pIC50 is the IC50 on a negative log10 scale, so that one unit is a factor of ten.

SMILES strings stand for the structures. pIC50: −log10 of the molar value.

One assay has as its target T1, CDK2/CycA (Homo sapiens, UniProt P24941).
T1 construct: purchased ProQinase (Freiburg, Germany)
Description: General kinase assay (Example 80). It counts as biochemical. Particulars: ATP 1 μM. How it is done:
(§1) Kinase assays determining CDK2/CyclinA and CDK5/p35 activity were performed as described by the manufacturer's recommendations (ProQinase (Freiburg, Germany) for CDK2/CyclinA and Upstate for CDK5/p35).
(§2) The inhibitory effect of compounds according to the present invention on the activity of protein kinases can be measured according to the following protocol: • Reaction Volume: 40 μl • Reaction Time: 60 min • Reaction Temperature: room temperature • Assay Plate: 96 well U bottom plate (Greiner, 650161) • MultiScreen-PH Plate: 96 well MAPH Filter Plates (Millipore, MAPHNOB50) • Filter Washing Solution: 0.75% H3PO4 • Scintillation Liquid Supermix Liquid Scintillator (PerkinElmer, 1200-439) Controls: • Negative Control (C−): 100 mM EDTA (Ethylenediaminetetraacetic acid), no Inhibitor • Positive Control (C+): no Inhibitor Reaction Buffer: • 20 mM Tris (Tris(hydroxymethyl)aminomethane hydrochloride), pH 7.5 • 10 mM MgCl2 • 1 mM DTT Final Assay Concentrations: • Kinase: Use kinase conc. yielding 10% ATP turn over. • ATP: 1 μM • Adenosine 5′-[-^33P]triphosphate:12.5 μCi/ml (Amersham Biosciences, BF1000) • Substrate: Myelin Basic Protein 10 μM (Invitrogen, 13228-010) Pipetting Sequence: • 1) Add 10 μl 4 fold concentrated Substrate+4 fold concentrated ATP in […] concentrated Reaction Buffer to each well of Assay Plate • 2) Add 10 μl 4 fold concentrated inhibitor in 4% DMSO in H2O to each well except to C− and C+wells • 3) Add 10 μl 4% DMSO in H2O to C− and C+wells • 4) Add 10 μl 500 mM EDTA in H2O to C− wells • 5) Add 10 μl 50 μCi/ml Adenosine 5′-[-^33P]triphosphate in H2O to each well • 6) Add 10 μl 4 fold concentrated kinase in Reaction Buffer to each well • 7) Incubate 1 hr at room temperature • 8) Add 10 μl 50 mM EDTA in H2O to each well except to C− wells • 9) Prepare MAPH plates by adding 200 μl 0.75% H3PO4 to each well • 10) Exhaust 0.75% H3PO4 using Millipore vacuum station • 11) Add 60 μl 0.75% H3PO4 to each well of MAPH Filter Plate • 12) Transfer 30 μl sample per well from Assay Plate to corresponding well of MAPH Filter Plate • 13) Incubate 30 min at room temperature • 14) Wash each well of MAPH Filter Plates 3× with 200 μl 0.75% H3PO4 using Millipore vacuum station. • 15) Add 20 μl Scintillation Liquid to each well of MAPH Filter Plate • 16) Seal MAPH Filter Plate • 17) Store MAPH Filter Plate 30 min in darkness • 18) Quantify radioactivity Results:
(§3) IC50s were calculated for each kinase based on serial dilutions.

The target in another assay is T2, CDK5/p35 (Homo sapiens, UniProt Q00535).
T2 construct: purchased Upstate
Put plainly: General kinase assay (Example 80). Particulars: ATP 1 μM. It counts as biochemical. As for the experimental part:
as §1, §2, §3

A further assay addresses CDK6/CycD3 (Homo sapiens, UniProt Q00534). Description: General kinase assay (Example 80). As to conditions: ATP 1 μM. The class given is biochemical. How it is done: as §2, §3
The next assay deals with CDK4/CycD1 (Homo sapiens, UniProt P11802). Description: General kinase assay (Example 80). The class given is biochemical. Particulars: ATP 1 μM. As for the experimental part:
as §2, §3

For a further assay, the target named is CDK1/CycB (Homo sapiens, UniProt P06493). Description: General kinase assay (Example 80). It counts as biochemical. Particulars: ATP 1 μM. As for the experimental part: as §2, §3
A further assay concerns U373-MAGI-CCR5E. Put plainly: Growth assay using Alamar Blue. As to conditions: read-out: IC50 against cell line U373-MAGI-CCR5E. The class given is cell-based. As for the experimental part:
(§4) Cells were seeded in 384-well plates (white, Greiner: 781080) at a density of […] cells per well in medium (RPMI+10% FCS).
(§5) Cells were incubated in 25 μl medium/well and were grown over night at 37° C., 6% CO2. On the following day compounds were added in DMSO in serial fold dilutions in fresh medium. Negative control wells were incubated without cells. Positive control wells were incubated with cells but without inhibitors (DMSO only). These wells served as data points to determine relative growth (given in % of the DMSO control [=100%]). The cell number was determined by addition of 5 μL Alamar Blue™ (Biosource DAL1100) to each well. Fluorescence was measures with an Analyst GT machine (Molecular Devices) at an excitation wavelength of 560 nm and an emission wavelength of 590 nm.
(§6) The following cell lines were used: A2780 (ECACC order number 93112519; human ovarian carcinoma; Semin Oncol (1984) 11:285; Cancer Res (1987) 47:414), B16F1 (ATCC order number CRL-6323; melanoma; Nat. New Biol. 242: 148-149, 1973); HCT116 (ATCC order number CCL-247; Colorectal carcinoma; Cancer Res (1981) 41:1751; Cancer (1995) 76:201), HT29 (ATTC order number HTB-38; colorectal adenocarcinoma; J. Biol. Chem. 271: 9490-9496, 1996) HepG2 (ATCC order number HB-8065; hepatocellular carcinoma; J. Biol. Chem. 271: 10073-10078, 1996), J774 (ATCC order number TIB-67; reticulum cell sarcoma; J. Biol. Chem. 271: 18431-18436, 1996); MCF7 (ATCC order number HTB-22; Breast carcinoma; J Natl Cancer Inst (1973) 51:1409; Cancer Res (1993) 53:5193), PM1 (obtainable from the National Institute of Allergy and Infectious Diseases; Division of AIDS via the NIH AIDS Research & Reference Reagent Program; Lusso P et al (1995), J Virol 69: 3712-3720) and U373-MAGI-CCR5 (obtainable from the National Institute of Allergy and Infectious Diseases; Division of AIDS via the NIH AIDS Research & Reference Reagent Program; Kensinger R D et al (2004), Antimicrob Agents Chemother 48: 1614-1623).
(§7) IC50s were calculated for each cell line based on serial dilutions.

The subject of a further assay is B16F1. Description: Growth assay using Alamar Blue. It counts as cell-based. Particulars: Mus musculus, B16-F1, read-out: IC50 against cell line B16F1. As for the experimental part: as §4, §5, §6, §7
(The colour change of resazurin is a common sign of viable cells or microbes.)

The subject of a further assay is J774. Put plainly: Growth assay using Alamar Blue. The class given is cell-based. Particulars: Mus musculus, read-out: IC50 against cell line J774. How it is done: as §4, §5, §6, §7
Another assay has as its system A2780. Description: Growth assay using Alamar Blue. The class given is cell-based. As to conditions: Homo sapiens, read-out: IC50 against cell line A2780. As for the experimental part: as §4, §5, §6, §7
The next assay has as its system HCT116. Put plainly: Growth assay using Alamar Blue. It counts as cell-based. Particulars: Homo sapiens, HCT-116, read-out: IC50 against cell line HCT116. As for the experimental part: as §4, §5, §6, §7
The subject of a further assay is PM1. Description: Growth assay using Alamar Blue. As to conditions: read-out: IC50 against cell line PM1. The class given is cell-based. As for the experimental part: as §4, §5, §6, §7
The test system of a further assay is HT29. Put plainly: Growth assay using Alamar Blue. The class given is cell-based. Particulars: Homo sapiens, HT-29, read-out: IC50 against cell line HT29. As for the experimental part:
as §4, §5, §6, §7

The subject of the next assay is HepG2. Description: Growth assay using Alamar Blue. As to conditions: Homo sapiens, read-out: IC50 against cell line HepG2. It counts as cell-based. How it is done:
as §4, §5, §6, §7

The subject of another assay is MCF7. Description: Growth assay using Alamar Blue. Particulars: Homo sapiens, read-out: IC50 against cell line MCF7. It counts as cell-based. As for the experimental part:
as §4, §5, §6, §7

The test system of a further assay is HBV (HepG2-2.2.15 cells). Description: HBV replication assay. The class given is cell-based. Particulars: 6 days. As for the experimental part: To test the anti-HBV-activity of compounds of the present invention the HBV-producing cell line HepG2-2.2.15 (M. A. Sells, PNAS 1987, 84, 1005-1009) is used. About 1.0×10^4 cells are seeded in 96-well microtiter plates in DMEM medium supplemented with 10% FCS. After incubation at 37° C. in 5% CO2 atmosphere for 24 hours the medium is replaced with fresh medium containing the appropriately diluted compounds of the present invention. 3 days later medium is replaced by freshly prepared compound-containing medium and the cells are incubated for further 3 days. Subsequently 200 μl lysis buffer (50 mM Tris-Cl 7.5; 1 mM EDTA 8.0; 0.5% NP40) per well is added. To remove cell debris and nucleic acids, lysate is centrifuged (15000 rpm, 10 min, 4° C.).
Cellular and viral RNA is removed by addition of 2 μl of RNase. 100 μl of the samples are spotted onto an uncharged nylon membrane pre-wetted with PBS (phosphate-buffered saline) using a 96 well-blotting chamber (MINIfold Dot-Blot, Schleicher&Schüll). […]
The fixed membrane is pre-hybridized in a standard hybridisation buffer (50% formamide, 5×SSPE, 10×Denhards, 1% SDS, 100 μg/ml salmon sperm DNA) for at least 3 hours at 42° C. and hybridised overnight against the labelled HBV-fragment. […] The intensity of the HBV-DNA is quantified using a phosphoimager (Fuji). […] Absorbance is monitored at 570 nm and 600 nm wavelength.

Chain of CDK4/CycD1 (P11802 whole entry, species assumed): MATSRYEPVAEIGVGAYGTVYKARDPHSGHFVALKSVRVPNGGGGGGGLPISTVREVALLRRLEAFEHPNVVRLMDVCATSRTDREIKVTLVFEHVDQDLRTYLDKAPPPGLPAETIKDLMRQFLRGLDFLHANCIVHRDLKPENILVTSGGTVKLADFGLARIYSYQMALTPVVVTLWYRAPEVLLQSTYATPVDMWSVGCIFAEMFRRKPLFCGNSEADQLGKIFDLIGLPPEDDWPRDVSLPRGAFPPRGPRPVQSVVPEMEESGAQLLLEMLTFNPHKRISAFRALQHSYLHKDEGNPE
Chain of CDK4/CycD1 (P24385 whole entry partner, species assumed): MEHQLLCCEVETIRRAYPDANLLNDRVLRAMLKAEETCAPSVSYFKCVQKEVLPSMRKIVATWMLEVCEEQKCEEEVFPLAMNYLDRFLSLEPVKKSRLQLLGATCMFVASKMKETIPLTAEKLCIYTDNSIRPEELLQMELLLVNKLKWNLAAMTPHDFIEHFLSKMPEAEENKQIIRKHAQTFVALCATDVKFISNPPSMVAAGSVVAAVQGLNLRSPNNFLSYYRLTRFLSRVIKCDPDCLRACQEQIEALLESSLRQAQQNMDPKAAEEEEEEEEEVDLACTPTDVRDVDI
Chain of CDK1/CycB (P06493 whole entry, species assumed): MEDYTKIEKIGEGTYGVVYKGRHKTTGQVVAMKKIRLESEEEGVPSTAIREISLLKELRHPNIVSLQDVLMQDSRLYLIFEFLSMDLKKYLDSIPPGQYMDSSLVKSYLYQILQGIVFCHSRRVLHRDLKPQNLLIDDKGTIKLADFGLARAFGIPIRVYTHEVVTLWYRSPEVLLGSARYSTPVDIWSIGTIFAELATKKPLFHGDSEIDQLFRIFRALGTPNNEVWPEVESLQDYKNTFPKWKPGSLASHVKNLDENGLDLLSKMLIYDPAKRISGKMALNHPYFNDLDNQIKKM
Chain of CDK1/CycB (P14635 whole entry partner, species assumed): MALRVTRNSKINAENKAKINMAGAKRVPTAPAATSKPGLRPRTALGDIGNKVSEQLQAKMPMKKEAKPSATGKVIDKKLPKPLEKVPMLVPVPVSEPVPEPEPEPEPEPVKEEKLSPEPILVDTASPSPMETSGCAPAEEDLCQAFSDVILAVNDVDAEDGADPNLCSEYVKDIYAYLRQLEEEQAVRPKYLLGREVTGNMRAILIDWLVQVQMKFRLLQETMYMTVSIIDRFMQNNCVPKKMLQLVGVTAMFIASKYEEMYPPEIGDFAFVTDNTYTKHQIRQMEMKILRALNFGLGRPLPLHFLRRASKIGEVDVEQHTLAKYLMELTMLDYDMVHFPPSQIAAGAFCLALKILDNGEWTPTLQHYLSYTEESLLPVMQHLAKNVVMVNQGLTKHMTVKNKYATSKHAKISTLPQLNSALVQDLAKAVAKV
T2 sequence (Q00535 whole entry): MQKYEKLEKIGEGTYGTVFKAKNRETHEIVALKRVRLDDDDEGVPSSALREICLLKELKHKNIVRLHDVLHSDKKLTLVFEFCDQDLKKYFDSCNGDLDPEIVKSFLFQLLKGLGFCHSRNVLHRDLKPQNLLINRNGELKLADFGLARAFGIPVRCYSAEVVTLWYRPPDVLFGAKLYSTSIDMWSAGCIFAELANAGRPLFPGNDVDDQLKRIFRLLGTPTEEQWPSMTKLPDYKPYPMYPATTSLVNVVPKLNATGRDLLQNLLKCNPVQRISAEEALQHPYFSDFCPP
T2 sequence (Q15078 whole entry partner): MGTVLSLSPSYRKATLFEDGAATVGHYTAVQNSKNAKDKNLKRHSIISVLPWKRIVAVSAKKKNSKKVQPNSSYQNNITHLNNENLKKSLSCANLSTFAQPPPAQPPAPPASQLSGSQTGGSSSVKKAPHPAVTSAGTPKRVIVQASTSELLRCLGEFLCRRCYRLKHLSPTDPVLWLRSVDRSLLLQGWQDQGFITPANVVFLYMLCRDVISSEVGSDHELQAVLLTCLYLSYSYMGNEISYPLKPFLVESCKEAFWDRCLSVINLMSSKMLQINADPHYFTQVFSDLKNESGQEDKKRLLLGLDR
Chain of CDK6/CycD3 (Q00534 whole entry, species assumed): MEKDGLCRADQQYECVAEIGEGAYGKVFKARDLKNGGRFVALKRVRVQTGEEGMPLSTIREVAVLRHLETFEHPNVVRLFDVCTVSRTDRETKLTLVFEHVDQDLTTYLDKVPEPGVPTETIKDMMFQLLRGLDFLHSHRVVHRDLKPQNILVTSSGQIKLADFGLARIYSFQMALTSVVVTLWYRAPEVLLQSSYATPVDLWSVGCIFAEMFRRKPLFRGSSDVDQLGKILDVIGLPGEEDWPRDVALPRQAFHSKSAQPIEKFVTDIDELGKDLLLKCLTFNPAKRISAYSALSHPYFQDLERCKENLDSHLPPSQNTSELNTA
Chain of CDK6/CycD3 (P30281 whole entry partner, species assumed): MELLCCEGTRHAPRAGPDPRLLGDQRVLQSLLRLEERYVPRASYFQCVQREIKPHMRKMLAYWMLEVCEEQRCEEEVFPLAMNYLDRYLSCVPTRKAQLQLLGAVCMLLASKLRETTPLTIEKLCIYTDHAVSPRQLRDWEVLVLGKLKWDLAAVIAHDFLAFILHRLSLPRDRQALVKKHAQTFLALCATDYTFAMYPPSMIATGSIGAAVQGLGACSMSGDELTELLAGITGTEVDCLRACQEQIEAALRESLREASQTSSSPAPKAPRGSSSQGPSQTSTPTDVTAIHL

Consider `COc1ccccc1-c1cc(Nc2cccc(CS(N)(=O)=O)c2)ncn1` [Compound 85, C-{3-[6-(2-methoxy-phenyl)-pyrimidin-4-ylamino]-phenyl}-methanesulfonamide], for which the negative-log IC50 (pIC50) was greater than 5.00 at CDK2/CycA; greater than 5.30 on CDK5/p35; greater than 5.00 on CDK6/CycD3; greater than 5.00 on CDK4/CycD1; greater than 5.00 at CDK1/CycB; greater than 5.00 with U373-MAGI-CCR5E. Also, the negative logarithm of the IC50 (pIC50) in the assay with B16F1 is greater than 5.00; in the assay with J774, greater than 5.00; in the assay on A2780, greater than 5.00; in the assay with HCT116 it was greater than 5.70; in the assay with PM1, greater than 5.30; in the assay with HT29, greater than 5.30. Further, the negative-log IC50 (pIC50) in the assay on HepG2 and in the assay with MCF7 was greater than 5.00 each time.
As to `CN1CC[C@H](c2c(O)cc(O)c3c(=O)cc(-c4ccccc4Cl)oc23)[C@H](O)C1` [flavopiridol], in the assay on HBV (HepG2-2.2.15 cells), the “HBV replication (HBV-DNA)” value is “inhibits replication”.

Values taken from patent US8507498B2, “4, 6-disubstituted aminopyrimidine derivatives as inhibitors of protein kinases” (Ingenium Pharmaceuticals GmbH, priority 2007, dated 2013).
